# Measured values as given in the supplement of paper PMC10307832.
# Tests used:
# Test in all cases: relative viability (nuclei count vs DMSO), 5 days (fraction); higher = more cells survive
# [1] = compound: COc1cc2ncn(-c3cc(OCc4ccccc4C(F)(F)F)c(C(N)=O)s3)c2cc1OC + CCNC(=O)c1noc(-c2cc(C(C)C)c(O)cc2O)c1-c1ccc(CN2CCOCC2)cc1 [Luminespib] (partner 0.01 µM)
# Procedure, shortened: (§1)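 Lung cancer cell lines were seeded in 1536-well plates and dosed by pin tool the next day, with either a single drug or a fixed anchor-drug dose combined with five library-drug doses (not always all listed) spaced in √10 steps. Five days later, one step fixed the cells and stained their nuclei (final 0.05% Triton X-100, 1% formaldehyde, 1 ug/ml Hoechst), and nuclei were counted on 4× images. Relative viability is the nuclei count in treated wells divided by the count in vehicle wells, and each value is the median of duplicate plates.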
# [2] = compound: COc1cc2ncn(-c3cc(OCc4ccccc4C(F)(F)F)c(C(N)=O)s3)c2cc1OC + CS(=O)(=O)CCNCc1ccc(-c2ccc3ncnc(Nc4ccc(OCc5cccc(F)c5)c(Cl)c4)c3c2)o1 [Lapatinib] (partner 2 µM)
# Procedure, shortened: as §1
# [3] = compound: COc1cc2ncn(-c3cc(OCc4ccccc4C(F)(F)F)c(C(N)=O)s3)c2cc1OC + Nc1ncn([C@H]2C[C@H](O)[C@@H](CO)O2)c(=O)n1 [Decitabine] (partner 2 µM)
# Procedure, shortened: as §1
# [4] = compound: COc1cc2ncn(-c3cc(OCc4ccccc4C(F)(F)F)c(C(N)=O)s3)c2cc1OC + O=C(c1cc(Cc2n[nH]c(=O)c3ccccc23)ccc1F)N1CCN(C(=O)C2CC2)CC1 [Olaparib] (partner 8 µM)
# Procedure, shortened: as §1
Cell Line,relative viability ([1]; first compound 0.05 µM),relative viability ([1]; first compound 0.1581 µM),relative viability ([1]; first compound 0.5 µM),relative viability ([1]; first compound 1.581 µM),relative viability ([1]; first compound 5 µM),relative viability ([2]; first compound 0.05 µM),relative viability ([2]; first compound 0.1581 µM),relative viability ([2]; first compound 0.5 µM),relative viability ([2]; first compound 1.581 µM),relative viability ([2]; first compound 5 µM),relative viability ([3]; first compound 0.05 µM),relative viability ([3]; first compound 0.1581 µM),relative viability ([3]; first compound 0.5 µM),relative viability ([3]; first compound 1.581 µM),relative viability ([3]; first compound 5 µM),relative viability ([4]; first compound 0.05 µM),relative viability ([4]; first compound 0.1581 µM),relative viability ([4]; first compound 0.5 µM),relative viability ([4]; first compound 1.581 µM),relative viability ([4]; first compound 5 µM)
201T,1.07,1.08,1,0.689,0.28,1.04,1.03,1.01,0.708,0.299,0.866,0.877,0.851,0.562,0.251,0.747,0.83,0.871,0.27,0.246
PC-14,0.15,0.303,0.189,0.159,0.133,0.33,0.353,0.318,–,0.278,0.272,0.195,0.141,0.0475,0.0694,0.216,0.246,0.0786,0.0384,0.0696
UMC-11,0.974,0.722,0.128,0.161,0.145,0.991,0.917,0.348,0.195,0.136,0.309,0.595,0.265,0.253,0.251,0.313,0.293,0.21,0.185,0.159
PC-3 [JPC-3],0.66,0.712,0.486,0.221,0.19,0.443,0.508,0.37,0.227,0.263,0.779,0.842,0.653,0.396,0.43,0.955,1.01,0.588,0.424,0.316
LK-2,0.194,0.204,0.157,0.152,0.173,1.01,0.841,0.437,0.217,0.222,0.271,0.236,0.133,0.131,0.0977,0.681,0.345,0.215,0.16,0.0981
COR-L23,0.363,0.604,0.249,0.104,0.0965,0.891,1.01,0.798,0.143,0.107,0.435,0.394,0.305,0.145,0.159,0.307,0.282,0.138,0.0966,0.109
NCI-H1944,0.512,0.705,0.543,0.177,0.0836,0.972,1,0.729,0.165,0.114,0.468,0.465,0.399,0.235,0.153,0.415,0.445,0.304,0.152,0.122
NCI-H2405,0.76,0.601,0.341,0.283,0.338,1.12,0.882,0.669,0.402,0.323,0.754,0.704,0.506,0.373,0.324,0.795,0.809,0.326,0.312,0.331
SW 1573,0.547,0.337,0.12,0.091,0.154,1.14,0.445,0.918,0.217,0.739,0.572,0.413,0.223,0.0976,0.126,0.442,0.428,0.188,0.103,0.119
EMC-BAC-2,1.19,1.22,0.931,0.569,0.219,0.998,0.944,0.786,0.228,0.216,1.12,1.05,0.963,0.504,0.253,0.467,0.48,0.359,0.259,0.216
NCI-H1650,0.187,0.187,0.193,0.19,0.185,0.789,0.853,0.293,0.196,0.186,0.396,0.382,0.329,0.219,0.138,0.757,0.659,0.305,0.114,0.204
NCI-H647,0.438,0.143,0.12,0.101,0.069,0.97,0.935,0.448,0.0772,0.0798,0.381,0.275,0.168,0.131,0.107,0.474,0.331,0.103,0.0536,0.0596
LCLC-97TM1,0.757,0.719,0.415,0.167,0.197,0.802,0.893,0.343,0.175,0.161,0.246,0.238,0.196,0.139,0.114,0.201,0.222,0.189,0.0731,0.0698
H3255,0.861,0.924,0.757,–,0.518,0.24,0.261,0.206,0.17,0.149,0.518,0.674,0.625,0.312,0.294,0.532,0.534,0.541,0.415,0.332
LXF-289,0.42,0.483,0.259,0.0958,0.0607,0.912,0.709,0.647,0.147,0.0707,0.434,0.363,0.274,0.129,0.108,0.704,0.817,0.269,0.0639,0.0504
